In the NIST ThermoML archive (doi:10.1016/j.jct.2015.09.006):
± gives the expanded uncertainty stated by the source. Each block holds one molecule with its values, some of them ahead of it.

Experiment: wn = mass fraction of the nth substance listed
Details: 323.15 K, 101.3 kPa, Liquid, Vibrating tube method

SMILES: O=[PH2][O-].O=[PH2][O-].[Ca+2] [calcium hypophosphite] + O
mass density (w1 = 0.1326): 1073.2 ± 24 kg/m3

mass density (w1 = 0.566): 1575.9 ± 24 kg/m3
SMILES: [Ca+2].[Cl-].[Cl-] [calcium chloride] + O

SMILES: O=[PH2][O-].[Na+] [sodium phosphinate] + O
mass density (w1 = 0.5786): 1415.2 ± 24 kg/m3
